Values quoted from earlier work in US20040234544A1, “Formulation containing (lyso-)phosphatidylserine for the prevention and treatment of stress states in warm blooded animals” (priority 2001, published 2004).
Where two headings read alike, the source gives them in different places.

Experiments:
persons under 40 years = persons under 40 years and persons whose brain function was average for their age
trained runners = conditions: 300 or 600 mg PS per day over 15 days
young adults = conditions: 300 mg PS per day

## phosphatidylserine
Persons under 40 years
  improvements under PS supplementation: no improvements were observed
rats; old rats
  effect in stress-induced behaviour (body temperature): normalization of body temperature
rats; older rats
  effect in lesions of the stomach wall: positive effect
rats; young rats
  effect in lesions of the stomach wall: this effect was not observed
Trained runners
  effect against muscle damage: protective effect against muscle damage
Young adults
  mood: positive effect
  pulse rate: positive effect
  subjective stress sensitivity: positive effect
